Values belong to the compound of their own block, whether it stands above or below them.
Tests used:
[1] = system: T1, CpomOR22; assay: two-electrode voltage clamp, Xenopus oocytes, dose response; also GC-SSR; type: cell-based, Cydia pomonella
T1 construct: gene OR22; with CpomOrco

[2] = system: T1, CpomOR22; assay: two-electrode voltage clamp, Xenopus oocytes, dose response; type: cell-based, Cydia pomonella
Source text: two-electrode voltage clamp, Xenopus oocytes, dose response on CpomOR22 | CpomOR22 dose responsiveness to undecanal and γ-undecalactone across five orders of magnitude

[3] = system: T2, CpomOR22; assay: SSR dose response and GC-SSR in transgenic Drosophila ab3A neurons; parameters: species or system Cydia pomonella
T2 construct: gene OR22

EC50 [1]: 16.7 µM
SMILES: CCCCCCCCCCC=O [undecanal]

SMILES: CCCCCCCC1CCC(=O)O1 (stereo not drawn) [γ-undecalactone]
EC50 [2]: 8.4 µM

EC50 [3]: 2.903 ± 1.709 µg
SMILES: CCCC/C=C\CCCCC=O [(Z)−6-undecenal]
